Assay [1] has as its target T1, Orexin/Hypocretin receptor type 1 (Homo sapiens, UniProt O43613).
T1 sequence (O43613 whole entry): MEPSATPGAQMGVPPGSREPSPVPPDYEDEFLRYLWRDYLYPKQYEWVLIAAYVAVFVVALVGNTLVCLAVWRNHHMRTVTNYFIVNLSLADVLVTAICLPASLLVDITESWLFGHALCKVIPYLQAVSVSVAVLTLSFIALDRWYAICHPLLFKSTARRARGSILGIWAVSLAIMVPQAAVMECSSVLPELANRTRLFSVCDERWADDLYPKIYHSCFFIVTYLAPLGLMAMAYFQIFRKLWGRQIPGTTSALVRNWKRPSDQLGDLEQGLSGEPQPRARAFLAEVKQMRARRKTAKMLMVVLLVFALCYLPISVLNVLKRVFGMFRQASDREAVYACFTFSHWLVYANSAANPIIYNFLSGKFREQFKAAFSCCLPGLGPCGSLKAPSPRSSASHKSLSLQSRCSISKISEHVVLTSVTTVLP
Nature of the assay: Homogeneous Time Resolved Fluorescence (HTRF)-based cell-based high throughput dose response assay for antagonists of the orexin 1 receptor (OX1R; HCRTR1). [Related pubchem assays (depositor defined):AID434989, AID435008, AID463079, AID485270, AID492963, AID492964, AID492965, AID493232, AID504717, AID504718]. Format: functional. In general terms: Time-resolved FRET reads energy transfer from a long-lived donor to a nearby acceptor.

Another assay has as its system CHO-K1. In words: Counterscreen for antagonists of the orexin 1 receptor (OX1R; HCRTR1): Homogeneous time resolved fluorescence (HTRF)-based cell-based dose response assay to identify antagonists of the parental CHO-K1 cell line. [Related pubchem assays (depositor defined):AID434989, AID435008, AID463079, AID485270, AID492963, AID492964, AID492965, AID493232, AID504699, AID504701]. Format: functional. To be noted: Cricetulus griseus. On the technique in general: Counterscreens check selectivity or assay interference.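 Note: potency for inhibition of ATP-stimulated IP1 production as antagonists.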

The nature of assay [2]: Counterscreen for antagonists of the orexin 1 receptor (OX1R; HCRTR1): Fluorescence-based cell-based high throughput dose response assay to identify antagonists of the parental CHO cell line. [Related pubchem assays (depositor defined):AID434989, AID435008, AID463079, AID485270, AID492963, AID492964, AID492965, AID493232, AID504699, AID504701]. It is filed as functional.

Assay [3] concerns the target T2, Orexin receptor type 2 (Homo sapiens, UniProt O43614). Nature of the assay: Counterscreen assay for antagonists of the orexin 1 receptor (OX1R; HCRTR1): Homogeneous Time Resolved Fluorescence (HTRF)-based cell-based dose response assay for antagonists of the orexin 2 receptor (OX2R; HCRTR2), run by assay provider. It is filed as functional.
Assay [4] has as its target T2, Orexin receptor type 2. Nature of the assay: Counterscreen assay for antagonists of the orexin 1 receptor (OX1R; HCRTR1): Fluorescence-based cell-based dose response assay for antagonists of the orexin 2 receptor (OX2R; HCRTR2), run by assay provider. Format: functional.
The nature of assay [5]: microbe, parasite or virus in culture. Format: functional. To be noted: Mycobacterium tuberculosis.
Assay [6] concerns the target T1, Orexin/Hypocretin receptor type 1. In words: Fluorescence-based cell-based high throughput dose response assay for antagonists of the orexin 1 receptor (OX1R; HCRTR1). [Related pubchem assays (depositor defined):AID434989, AID435008, AID463079, AID485270, AID492963, AID492964, AID492965, AID493232, AID504717, AID504718]. It is filed as functional.
For assay [7], the target named is T3, Endoribonuclease toxin MazF (Escherichia coli K-12, UniProt P0AE70).
T3 sequence (P0AE70 whole entry): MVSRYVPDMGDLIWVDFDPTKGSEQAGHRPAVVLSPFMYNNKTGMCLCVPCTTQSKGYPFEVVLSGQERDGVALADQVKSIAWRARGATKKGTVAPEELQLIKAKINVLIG
In words: MazF toxin RNase activators, dose response, biochemical, fluorescence, single-stranded RNA substrate, uHTS hits (AID 588481). It is filed as functional.

In the next assay the test system is MEF. In words: SAR analysis of small molecule cytotoxicity of MazEF TA System activators in embryonic fibroblast (MEF) cells. [Related pubchem assays (depositor defined):AID504720, AID504743]. It is filed as functional. To be noted: Mus musculus.
Assay [8] has as its target T3, Endoribonuclease toxin MazF. In words: SAR analysis of small molecule activators of the MazEF TA System via a fluorescence-based single-stranded RNase assay counterscreen. [Related pubchem assays (depositor defined):AID504720, AID504743]. Format: functional.
Assay [9] has the same target. In words: fluorescent RNA oligo signal without MazF, dose response, counter-screen for MazEF activator project, biochemical, fluorescence, single-stranded RNase substrate (AID 588502). It is filed as functional.
Assay [10] shares this target. Nature of the assay: MazF endoribonuclease activators, SAR follow-up, biochemical, fluorescence, single-stranded RNA substrate (AID 588603). Format: functional.
Assay [11] relates to Candida albicans. In words: reversal of fluconazole resistance in C. albicans, dose response, CaCi-2 strain, Alamar Blue, dry powder, set 3 (AID 488907). It is filed as functional, organism-based. In general terms: The colour change of resazurin is a common sign of viable cells or microbes.
Assay [12] concerns Candida albicans. Nature of the assay: growth inhibition of azole-resistant C. albicans, dose response, CaCi-8 strain, Alamar Blue, dry powder, set 3 (AID 488905). It is filed as functional, organism-based.
Assay [13] concerns Candida albicans. In words: fluconazole resistance reversal in C. albicans, dose response, CaCi-2 strain, Alamar Blue, dry powder, set 4 (AID 488943). Format: functional, organism-based.
The subject of assay [14] is Candida albicans. Nature of the assay: Candida albicans growth inhibition, agent alone, dose response, counter-screen for reversing antifungal drug resistance, CaCi-2 strain, no fluconazole, dry powder, set 4 (AID 488932). Format: functional, organism-based.
Assay [15] deals with Candida albicans. In words: growth inhibition of resistant C. albicans, dose response, CaCi-8 strain, fluconazole, dry powder, set 4 (AID 488950). Format: functional, organism-based.
Another assay deals with Phospholipase D1 (Homo sapiens, UniProt Q13393). In words: PLD1 inhibitor potency in cells, dose response (AID 602151).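 Note: cellular PLD1 assay in Calu-1 cells stimulated with PMA.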 Format: functional.
Another assay deals with Phospholipase D2 (Homo sapiens, UniProt O14939). In words: PLD2 inhibitor potency in cells, dose response (AID 602147).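 Note: cellular assay in HEK293 cells overexpressing GFP-tagged PLD2.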 Format: functional.

Data on 4 compounds can be found in ChEMBL document CHEMBL1201862, “PubChem BioAssay data set” (2004).

Molecules are shown by their SMILES. Active and inactive are the calls of the source. A value given as a limit tells only on which side of the number the result lay.

T2 sequence (O43614 whole entry): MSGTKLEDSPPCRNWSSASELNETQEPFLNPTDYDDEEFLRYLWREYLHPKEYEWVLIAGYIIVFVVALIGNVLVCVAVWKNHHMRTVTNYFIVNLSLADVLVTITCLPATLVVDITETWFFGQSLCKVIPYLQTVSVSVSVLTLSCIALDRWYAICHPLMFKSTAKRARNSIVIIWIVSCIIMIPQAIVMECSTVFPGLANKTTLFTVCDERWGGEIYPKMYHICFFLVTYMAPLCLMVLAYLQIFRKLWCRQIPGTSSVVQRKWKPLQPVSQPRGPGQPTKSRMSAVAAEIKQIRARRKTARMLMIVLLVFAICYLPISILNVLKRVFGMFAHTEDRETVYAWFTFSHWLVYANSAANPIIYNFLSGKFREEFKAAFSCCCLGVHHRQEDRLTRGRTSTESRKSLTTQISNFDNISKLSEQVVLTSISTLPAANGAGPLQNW
Chain of Phospholipase D1 (Q13393 whole entry): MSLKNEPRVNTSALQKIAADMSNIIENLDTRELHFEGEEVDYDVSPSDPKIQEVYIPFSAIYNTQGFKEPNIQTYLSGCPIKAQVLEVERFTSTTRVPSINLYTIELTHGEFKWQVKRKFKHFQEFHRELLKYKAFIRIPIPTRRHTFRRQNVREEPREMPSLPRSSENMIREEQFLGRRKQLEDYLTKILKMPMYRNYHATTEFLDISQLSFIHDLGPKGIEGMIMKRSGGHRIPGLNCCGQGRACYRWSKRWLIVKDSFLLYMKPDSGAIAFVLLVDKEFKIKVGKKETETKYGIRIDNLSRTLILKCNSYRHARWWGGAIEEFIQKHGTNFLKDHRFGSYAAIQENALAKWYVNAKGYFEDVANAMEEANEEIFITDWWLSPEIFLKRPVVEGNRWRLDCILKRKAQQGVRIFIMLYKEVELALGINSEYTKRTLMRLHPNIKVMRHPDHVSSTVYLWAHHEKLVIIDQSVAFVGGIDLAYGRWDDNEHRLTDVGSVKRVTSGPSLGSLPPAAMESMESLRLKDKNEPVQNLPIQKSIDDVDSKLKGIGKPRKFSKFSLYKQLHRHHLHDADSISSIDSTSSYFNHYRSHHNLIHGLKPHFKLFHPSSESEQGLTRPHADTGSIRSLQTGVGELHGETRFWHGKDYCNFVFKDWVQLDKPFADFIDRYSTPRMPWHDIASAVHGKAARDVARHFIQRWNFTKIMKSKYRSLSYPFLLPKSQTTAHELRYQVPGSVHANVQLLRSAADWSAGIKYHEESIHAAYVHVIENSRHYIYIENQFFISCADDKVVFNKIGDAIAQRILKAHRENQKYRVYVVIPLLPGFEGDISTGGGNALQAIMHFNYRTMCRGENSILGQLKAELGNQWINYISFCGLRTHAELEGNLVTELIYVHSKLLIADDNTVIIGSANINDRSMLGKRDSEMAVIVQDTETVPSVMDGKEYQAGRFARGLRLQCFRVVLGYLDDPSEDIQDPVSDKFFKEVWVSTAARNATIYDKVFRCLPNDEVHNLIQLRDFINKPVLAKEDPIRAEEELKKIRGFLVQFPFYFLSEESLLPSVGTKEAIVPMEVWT
Chain of Phospholipase D2 (O14939 whole entry): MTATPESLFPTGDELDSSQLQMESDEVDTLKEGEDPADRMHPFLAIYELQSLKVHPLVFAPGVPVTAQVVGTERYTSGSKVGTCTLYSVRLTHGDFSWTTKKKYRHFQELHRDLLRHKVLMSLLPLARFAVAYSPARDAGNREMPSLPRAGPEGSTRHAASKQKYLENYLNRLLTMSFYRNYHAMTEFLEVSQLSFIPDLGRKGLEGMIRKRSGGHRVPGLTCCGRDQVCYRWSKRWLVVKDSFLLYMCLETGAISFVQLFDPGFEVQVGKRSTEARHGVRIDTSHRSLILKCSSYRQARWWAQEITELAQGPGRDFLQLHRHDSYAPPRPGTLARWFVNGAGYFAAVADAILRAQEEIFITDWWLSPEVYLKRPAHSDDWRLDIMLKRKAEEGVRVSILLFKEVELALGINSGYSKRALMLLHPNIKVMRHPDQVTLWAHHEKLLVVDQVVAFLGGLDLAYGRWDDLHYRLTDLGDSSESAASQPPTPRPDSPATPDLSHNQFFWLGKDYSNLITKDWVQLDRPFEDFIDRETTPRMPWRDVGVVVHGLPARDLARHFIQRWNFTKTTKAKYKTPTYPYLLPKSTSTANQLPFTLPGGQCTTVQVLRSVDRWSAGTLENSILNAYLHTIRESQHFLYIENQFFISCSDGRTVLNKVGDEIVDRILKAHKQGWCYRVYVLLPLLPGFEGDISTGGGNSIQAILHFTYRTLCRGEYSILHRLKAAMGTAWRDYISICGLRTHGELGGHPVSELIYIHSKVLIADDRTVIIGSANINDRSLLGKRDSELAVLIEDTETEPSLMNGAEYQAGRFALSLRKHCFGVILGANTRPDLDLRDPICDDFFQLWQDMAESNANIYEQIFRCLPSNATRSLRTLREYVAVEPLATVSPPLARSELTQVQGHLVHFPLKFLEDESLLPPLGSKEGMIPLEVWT

As usually defined, the IC50 is the concentration that inhibits the measured activity by half. Regarding `OCC1(Cc2cccc(Cl)c2)CCCN(Cc2ccc3cc(F)ccc3n2)C1` (centres undefined), the IC50 in assay [1] was 6.33 µM (active); with CHO-K1, > 66.2 µM (inactive); in assay [2] it was 31.4 µM (inactive); on Orexin receptor type 2 [3], 25.1 µM (inactive); on Orexin receptor type 2 [4], 6.7 µM (active); in [6], > 5.53 µM (active). The CC50 in assay [5] was > 40 µM (active).
For orientation: EC50 means the midpoint of the concentration-response curve. As to `CCC(C)NC(=O)c1ccc(CNS(=O)(=O)c2ccc3c(c2)C(C)(C)C(=O)N3C)cc1` (centres undefined), the EC50 was 15.9 µM (active) in [7], > 99 µM (inactive) in [8], > 99 µM (inactive) in [9] and 21.8 µM (inactive) in assay [10]. In the assay with MEF, the CC50 is > 99 µM (inactive).
By AC50 is commonly meant the concentration at which the activity in the assay is half-maximal. For `O=C(c1ccc(Cl)cc1)N1CCN(c2nccs2)CC1`, the concentration at half-maximal activity (AC50) with Candida albicans [11] is 0.555 µM (active); in the assay on Candida albicans [12], 20 µM (active); in the assay with Candida albicans [13], 3.24 µM (active); with Candida albicans [14], 195 µM (active); with Candida albicans [15], 3.77 µM (active).
For the compound `O=C(NCCN1CCC(n2c(=O)[nH]c3ccccc32)CC1)c1cc2ccccc2c2ccccc12`, the half-inhibitory concentration (IC50) on Phospholipase D1 is 0.016 µM (active); on Phospholipase D2 it was 0.42 µM (active).
